Where no end group is shown, it is not given here.
Test system: Sprague-Dawley rats
Experiment: Delayed alternation test (T-maze) for cognitive function improvement
Format: in vivo, rat
Conditions: oral, 100 mg/ml solution; for effect of improving cognitive function and memory in the early stage of administration: delay of 5 seconds, early stage of 9-day training; for effect of improving cognitive function and memory (T-maze performance): delay of 5 seconds between trials, 9 days training
Protocol: Experimental animals were white male Sprague-Dawley rats (140 to 180 g, Daehan Biolink Co., Ltd.). These rats were housed in cages (4 rats per cage) in a constant environment (temperature: 25±1° C., and relative humidity: 60±10%) for one week and allowed to access water ad libitum. At this time, the feed was fed in a limited manner so that 80% of the body weight was kept. In this experiment, a total of 50 rats were used. The rats were adapted to the maze for 5 minutes a day for 3 days before training.
In the first trial, the animals were adapted to the start arm. The first trial is a “forced-choice trial”, in which one arm was blocked with the door and when the animal entered the other arm, the rear was blocked with the door. The animal was considered as entering the arm when all four paws passed through the entrance. The animal was allowed to eat feed in the corresponding arm for 60 seconds. The next trials were “free-choice trials”, in which the animal was free to choose the direction of the arm (left or right) starting from the start arm. The animal was made to be able to eat food as a reward only when it entered the arm that entered in the previous trial and the opposite arm.
The trials were performed with delays of 5 seconds and 20 seconds, and the cut-off time of each trial was set to 60 seconds. The number of times the animal entered the forced-choice arm and the time taken to enter the arm were measured. The same procedure was performed for 9 days with 10 trials per day, followed by assessment.
The silk peptides NF1, NF2 and TF1 to TF9 were prepared into solutions, each containing 100 mg/ml of each peptide, and were administered orally. All the samples were dissolved in distilled water and administered orally.

Substance | effect of improving cognitive function and memory in the early stage of administration | effect of improving cognitive function and memory (T-maze performance)
Ala-Gly-Gly-Ala (AGGA; printed: Ala-Gly-Gly-Ala) [Peptide P4-1] | significantly increased effect of improving cognitive function and memory in the early stage of administration | –
Ile-Gly-Ala-Tyr (IGAY; printed: Ile-Gly-Ala-Tyr) [Peptide P2-3] | – | relatively low
Ile-Gly-Gln-Gly (IGQG; printed: Ile-Gly-Gln-Gly) [Peptide P2-4] | – | relatively low
Ile-Gly-Tyr-Val (IGYV; printed: Ile-Gly-Tyr-Val) [Peptide P2-1] | – | relatively low
Ile-Gly-Val-Ala (IGVA; printed: Ile-Gly-Val-Ala) [Peptide P2-2] | – | relatively better
Ile-Gly-Val-Ala-Gly (IGVAG; printed: Ile-Gly-Val-Ala-Gly) [Peptide F3] | high activity of improving cognitive function and memory in an early stage, compared to P2-2 | high effect of improving cognitive function and memory, compared to P2-2
Ile-Gly-Val-Ala-Thr (IGVAT; printed: Ile-Gly-Val-Ala-Thr) [Peptide F1] | high activity of improving cognitive function and memory in an early stage, compared to P2-2 | high effect of improving cognitive function and memory, compared to P2-2
Ile-Gly-Val-Ala-Tyr (IGVAY; printed: Ile-Gly-Val-Ala-Tyr) [Peptide F2] | high activity of improving cognitive function and memory in an early stage, compared to P2-2 | high effect of improving cognitive function and memory, compared to P2-2
Tyr-Gly-Ala-Ala (YGAA; printed: Tyr-Gly-Ala-Ala) [Peptide P1-3] | – | increased effect of improving cognitive function and memory
Tyr-Gly-Gly-Ala (YGGA; printed: Tyr-Gly-Gly-Ala) [Peptide P1-2] | – | increased effect of improving cognitive function and memory
Tyr-Gly-Gly-Tyr (YGGY; printed: Tyr-Gly-Gly-Tyr) [Peptide P4-2] | – | increased effect of improving cognitive function and memory
Tyr-Gly-Ile-Ala (YGIA; printed: Tyr-Gly-Ile-Ala) [Peptide P1-6] | significantly increased effect of improving cognitive function and memory in the early stage of administration | increased effect of improving cognitive function and memory
Tyr-Gly-Val-Ile (YGVI; printed: Tyr-Gly-Val-Ile) [Peptide P1-5] | – | increased effect of improving cognitive function and memory
YGGYGI [Peptide P5-1] | excellent activity of improving cognitive function and memory in the early stage | clearly better effect of improving cognitive function and memory than P4-2

From patent US12264204B2, “Peptide for improving memory and preventing or alleviating cognitive dysfunction, composition comprising the same, and method for producing the same” (NATURESENSE CO., LTD., priority 2019, dated 2025)
